Literature values, collected in patent US9339504B2, “Orally disintegrating tablet compositions of lamotrigine” (ADARE Pharmaceuticals, Inc., priority 2007, dated 2016).
Converted amounts (≈) assume the structure as drawn. Like-named read-outs stand apart in the source and are kept apart here.

solubility in 0.01N HCl (0.01N HCl, 25° C.): ~3000 µg/mL (≈ 11.7 mM) | solubility in 0.1N HCl (0.1N HCl, 25° C.): ~4000 µg/mL (≈ 15.6 mM) | solubility in water (25° C.): ~170 µg/mL (≈ 0.664 mM) | solubility in water (37° C.): ~570 µg/mL (≈ 2.23 mM)
SMILES: Nc1nnc(-c2cccc(Cl)c2Cl)c(N)n1 [Lamotrigine, 3,5-diamino-6-(2,3,-dichlorophenyl)-1,2,4-triazine]
